Measured values taken from ChEMBL document CHEMBL1201862, “PubChem BioAssay data set” (2004).
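Briefly, cells in 96-well plates were exposed to five compound concentrations for 48 h, and endpoints were estimated by linear interpolation. Here, GI50 denotes the concentration required for 50% inhibition of growth.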 Activity calls are given as the source filed them. Rule as the data show it: active = GI50 up to about 1.1 µM and inactive = higher.

Legend:
Assay in all cases: NCI tumour cell line growth inhibition, 48 h
786-0 = system: 786-0
A498 = system: A498
A549 = system: A549
ACHN = system: ACHN
CAKI-1 = system: CAKI-1
CCRF-CEM = system: CCRF-CEM
COLO 205 = system: COLO 205
DLD-1 = system: DLD-1
DMS-273 = system: DMS-273
EKVX = system: EKVX
HCC 2998 = system: HCC 2998
HCT-116 = system: HCT-116
HCT-15 = system: HCT-15
HL-60 = system: HL-60
HOP-18 = system: HOP-18
HOP-62 = system: HOP-62
HOP-92 = system: HOP-92
HT-29 = system: HT-29
IGROV-1 = system: IGROV-1
K562 = system: K562
KM-20L2 = system: KM-20L2
KM12 = system: KM12
LOX IMVI = system: LOX IMVI
LXFL 529 = system: LXFL 529
M14 = system: M14
M19-MEL = system: M19-MEL
MOLT-4 = system: MOLT-4
Malme-3M = system: Malme-3M
NCI-H226 = system: NCI-H226
NCI-H23 = system: NCI-H23
NCI-H460 = system: NCI-H460
NCI-H522 = system: NCI-H522
OVCAR-3 = system: OVCAR-3
OVCAR-4 = system: OVCAR-4
OVCAR-5 = system: OVCAR-5
OVCAR-8 = system: OVCAR-8
RPMI-8226 = system: RPMI-8226
RXF 393 = system: RXF 393
RXF 631 = system: RXF 631
SF-268 = system: SF-268
SF-295 = system: SF-295
SF-539 = system: SF-539
SK-MEL-28 = system: SK-MEL-28
SK-MEL-2 = system: SK-MEL-2
SK-MEL-5 = system: SK-MEL-5
SK-OV-3 = system: SK-OV-3
SN12C = system: SN12C
SNB-19 = system: SNB-19
SNB-75 = system: SNB-75
SNB-78 = system: SNB-78
SW-620 = system: SW-620
TK-10 = system: TK-10
U-251 = system: U-251
UACC-257 = system: UACC-257
UACC-62 = system: UACC-62
UO-31 = system: UO-31
XF498 = system: XF498
DMS-114 = system: DMS-114

SMILES: CN(C)C(=S)/N=c1\ssc(=S)n1Cc1ccccn1
- GI50 (786-0): 4.24 µM (inactive)
- GI50 (A498): 4.84 µM (inactive)
- GI50 (A549): 3.85 µM (inactive)
- GI50 (ACHN): 8.24 µM (inactive)
- GI50 (CAKI-1): 6.93 µM (inactive)
- GI50 (CCRF-CEM): 10.7 µM (inactive)
- GI50 (COLO 205): 2.75 µM (inactive)
- GI50 (DLD-1): 4.45 µM (inactive)
- GI50 (DMS-273): 1.64 µM (inactive)
- GI50 (EKVX): 3.89 µM (inactive)
- GI50 (HCC 2998): 4.92 µM (inactive)
- GI50 (HCT-116): 2.87 µM (inactive)
- GI50 (HCT-15): 2.01 µM
- GI50 (HL-60): 3.19 µM (inactive)
- GI50 (HOP-18): 9.38 µM (inactive)
- GI50 (HOP-62): 10.6 µM (inactive)
- GI50 (HOP-92): 4.12 µM (inactive)
- GI50 (HT-29): 2.78 µM (inactive)
- GI50 (IGROV-1): 7.29 µM (inactive)
- GI50 (K562): 0.748 µM (active)
- GI50 (KM-20L2): 1.94 µM (inactive)
- GI50 (KM12): 1.14 µM (inactive)
- GI50 (LOX IMVI): 5.06 µM (inactive)
- GI50 (LXFL 529): 3.9 µM (inactive)
- GI50 (M14): 2.55 µM (inactive)
- GI50 (M19-MEL): 2.36 µM (inactive)
- GI50 (MOLT-4): 3.11 µM (inactive)
- GI50 (Malme-3M): 2.49 µM (inactive)
- GI50 (NCI-H226): 6.5 µM (inactive)
- GI50 (NCI-H23): 3.62 µM (inactive)
- GI50 (NCI-H460): 2.93 µM (inactive)
- GI50 (NCI-H522): 0.859 µM (active)
- GI50 (OVCAR-3): 2.52 µM (inactive)
- GI50 (OVCAR-4): 14 µM (inactive)
- GI50 (OVCAR-5): > 100 µM (inactive)
- GI50 (OVCAR-8): 4.54 µM (inactive)
- GI50 (RPMI-8226): 2.31 µM (inactive)
- GI50 (RXF 393): 3.01 µM (inactive)
- GI50 (RXF 631): 3.7 µM (inactive)
- GI50 (SF-268): 6 µM (inactive)
- GI50 (SF-295): 3.8 µM (inactive)
- GI50 (SF-539): 4.49 µM (inactive)
- GI50 (SK-MEL-28): 4.65 µM (inactive)
- GI50 (SK-MEL-2): 1.94 µM (inactive)
- GI50 (SK-MEL-5): 3.52 µM (inactive)
- GI50 (SK-OV-3): 4.67 µM (inactive)
- GI50 (SN12C): 7.03 µM (inactive)
- GI50 (SNB-19): 6.55 µM (inactive)
- GI50 (SNB-75): 4.48 µM (inactive)
- GI50 (SNB-78): 30.2 µM (inactive)
- GI50 (SW-620): 2.7 µM (inactive)
- GI50 (TK-10): 7.55 µM (inactive)
- GI50 (U-251): 3.89 µM (inactive)
- GI50 (UACC-257): 4.1 µM (inactive)
- GI50 (UACC-62): 2.41 µM (inactive)
- GI50 (UO-31): 3.7 µM (inactive)
- GI50 (XF498): 8.95 µM (inactive)

SMILES: COc1ccc(CC/N=C2\CCC(C(=O)NCCc3ccc(OC)c(OC)c3)N2)cc1OC (stereo unspecified)
- GI50 (786-0): > 100 µM (inactive)
- GI50 (A498): > 100 µM (inactive)
- GI50 (A549): > 100 µM (inactive)
- GI50 (ACHN): > 100 µM (inactive)
- GI50 (CAKI-1): > 100 µM (inactive)
- GI50 (CCRF-CEM): > 100 µM (inactive)
- GI50 (COLO 205): > 100 µM (inactive)
- GI50 (DLD-1): > 100 µM (inactive)
- GI50 (DMS-114): > 100 µM (inactive)
- GI50 (DMS-273): > 100 µM (inactive)
- GI50 (EKVX): > 100 µM (inactive)
- GI50 (HCC 2998): > 100 µM (inactive)
- GI50 (HCT-116): > 100 µM (inactive)
- GI50 (HCT-15): > 100 µM
- GI50 (HL-60): > 100 µM (inactive)
- GI50 (HOP-18): > 100 µM (inactive)
- GI50 (HOP-62): > 100 µM (inactive)
- GI50 (HOP-92): > 100 µM (inactive)
- GI50 (HT-29): > 100 µM (inactive)
- GI50 (IGROV-1): > 100 µM (inactive)
- GI50 (K562): > 100 µM (inactive)
- GI50 (KM-20L2): > 100 µM (inactive)
- GI50 (KM12): > 100 µM (inactive)
- GI50 (LOX IMVI): > 100 µM (inactive)
- GI50 (LXFL 529): > 100 µM (inactive)
- GI50 (M14): > 100 µM (inactive)
- GI50 (MOLT-4): > 100 µM (inactive)
- GI50 (Malme-3M): > 100 µM (inactive)
- GI50 (NCI-H226): > 100 µM (inactive)
- GI50 (NCI-H23): > 100 µM (inactive)
- GI50 (NCI-H460): > 100 µM (inactive)
- GI50 (NCI-H522): > 100 µM (inactive)
- GI50 (OVCAR-3): > 100 µM (inactive)
- GI50 (OVCAR-4): > 100 µM (inactive)
- GI50 (OVCAR-5): > 100 µM (inactive)
- GI50 (OVCAR-8): > 100 µM (inactive)
- GI50 (RPMI-8226): > 100 µM (inactive)
- GI50 (RXF 631): > 100 µM (inactive)
- GI50 (SF-268): > 100 µM (inactive)
- GI50 (SF-295): > 100 µM (inactive)
- GI50 (SK-MEL-28): > 100 µM (inactive)
- GI50 (SK-MEL-2): > 100 µM (inactive)
- GI50 (SK-MEL-5): > 100 µM (inactive)
- GI50 (SK-OV-3): > 100 µM (inactive)
- GI50 (SN12C): > 100 µM (inactive)
- GI50 (SNB-19): > 100 µM (inactive)
- GI50 (SNB-75): > 100 µM (inactive)
- GI50 (SNB-78): > 100 µM (inactive)
- GI50 (SW-620): > 100 µM (inactive)
- GI50 (TK-10): > 100 µM (inactive)
- GI50 (U-251): > 100 µM (inactive)
- GI50 (UACC-257): > 100 µM (inactive)
- GI50 (UACC-62): > 100 µM (inactive)
- GI50 (UO-31): > 100 µM (inactive)
- GI50 (XF498): > 100 µM (inactive)

SMILES: COc1cc(/C=C/c2ccncc2)cc(OC)c1OC
- GI50 (786-0): 72.4 µM (inactive)
- GI50 (A498): 30.5 µM (inactive)
- GI50 (A549): > 100 µM (inactive)
- GI50 (ACHN): > 100 µM (inactive)
- GI50 (CAKI-1): 49 µM (inactive)
- GI50 (CCRF-CEM): 42.9 µM (inactive)
- GI50 (COLO 205): > 100 µM (inactive)
- GI50 (DLD-1): > 100 µM (inactive)
- GI50 (DMS-114): > 100 µM (inactive)
- GI50 (DMS-273): 96.6 µM (inactive)
- GI50 (EKVX): 13.1 µM (inactive)
- GI50 (HCT-116): > 100 µM (inactive)
- GI50 (HCT-15): 49.4 µM
- GI50 (HL-60): 24.6 µM (inactive)
- GI50 (HOP-18): 70.8 µM (inactive)
- GI50 (HOP-62): 53.6 µM (inactive)
- GI50 (HOP-92): 29.9 µM (inactive)
- GI50 (HT-29): 64.3 µM (inactive)
- GI50 (IGROV-1): 74.6 µM (inactive)
- GI50 (K562): 52.7 µM (inactive)
- GI50 (KM-20L2): 65.5 µM (inactive)
- GI50 (KM12): > 100 µM (inactive)
- GI50 (LOX IMVI): 72.4 µM (inactive)
- GI50 (LXFL 529): 55 µM (inactive)
- GI50 (M14): > 100 µM (inactive)
- GI50 (MOLT-4): 65.8 µM (inactive)
- GI50 (Malme-3M): > 100 µM (inactive)
- GI50 (NCI-H226): > 100 µM (inactive)
- GI50 (NCI-H23): > 100 µM (inactive)
- GI50 (NCI-H460): > 100 µM (inactive)
- GI50 (NCI-H522): 32.3 µM (inactive)
- GI50 (OVCAR-3): 94.2 µM (inactive)
- GI50 (OVCAR-4): 76.9 µM (inactive)
- GI50 (OVCAR-5): 38.8 µM (inactive)
- GI50 (OVCAR-8): > 100 µM (inactive)
- GI50 (RPMI-8226): 52.4 µM (inactive)
- GI50 (RXF 393): 26.4 µM (inactive)
- GI50 (RXF 631): 31.6 µM (inactive)
- GI50 (SF-268): > 100 µM (inactive)
- GI50 (SF-295): > 100 µM (inactive)
- GI50 (SF-539): > 100 µM (inactive)
- GI50 (SK-MEL-28): > 100 µM (inactive)
- GI50 (SK-MEL-5): 63.2 µM (inactive)
- GI50 (SN12C): 96.2 µM (inactive)
- GI50 (SNB-19): > 100 µM (inactive)
- GI50 (SNB-75): 39.2 µM (inactive)
- GI50 (SNB-78): 96.2 µM (inactive)
- GI50 (SW-620): > 100 µM (inactive)
- GI50 (TK-10): 41 µM (inactive)
- GI50 (U-251): > 100 µM (inactive)
- GI50 (UACC-257): > 100 µM (inactive)
- GI50 (UACC-62): 67.1 µM (inactive)
- GI50 (UO-31): 24.4 µM (inactive)
- GI50 (XF498): 22.4 µM (inactive)
